# Reference: US20120070401A1, “Composition and Method for Promoting Wound Healing” (priority 2010, published 2012)
# Test system: corneal reepithelialization
# Test: rabbit corneal wound healing model (corneal reepithelialization after 9.5-mm epithelial wound, fluorescein-stained wound area)
# Type: in vivo, New Zealand White rabbits
# Conditions: n=10 per group
# Source text: Animals. One hundred and ten pathogen-free New Zealand White rabbits were obtained from a commercial laboratory. Animals were at least 18 weeks old and 2-3 kg body weight at the time of treatment.
# Pre-Treatment Examinations. Prior to placement on study, each animal underwent a pre-treatment ophthalmic examination (slit lamp with fluorescein staining). […] Animals were then randomly assigned to eleven treatment groups (10 animals per group) according to a modified Latin square design. Animals were fasted at least 12 hours prior to corneal wound surgery.
# Wounding Procedure. […]
# Corneal Wound Evaluation. The corneal wound condition was evaluated immediately post wounding and at 12, 24, 36, 48, 60, and 72 hours. […] From the photographs, the perimeter of the wounds was determined using a Mechanical Polar Planimeter (LASISCO; Los Angeles, Calif.).
# Numerical results were expressed as mean±SEM, n=10, unless indicated otherwise. Data were analyzed by a two-way ANOVA with repeated measures followed by the Tukey-Kramer test. In addition, overall effects were evaluated by analyzing integrated responses calculated as the areas under the curve (AUC) for each treatment over the time course. […] Integrated responses were analyzed by a one-way ANOVA followed by the Tukey-Kramer test. […]
substance,measurement,setting,value
benzalkonium chloride [BAK],integrated wound area (AUC over the time course) compared to the saline control,"0 to 72 hours, trapezoidal rule",no significant effects
same,effect on corneal reepithelialization time-course (wound area) compared to the saline control,"topical, 14 instillations over 72 hours, time points 12-72 hours",No significant effects
